In patent publication US7375190B2, “Recombinant protein and method of screening for agents that modulate polypeptide aggregation” (priority 2006, dated 2008):
Counter-ions that a name gives are not always drawn.

Experiments:
neurodegeneration = conditions: in vivo; cited from earlier work
[1] = system: polyglutamine protein aggregation; conditions: cited from earlier work
25Q-ADE2 = test: colony-color assay of yeast cells expressing 25Q-ADE2 on adenine low medium; type: cell-based; conditions: guanidine hydrochloride 0, 1, 3 and 5 mM; 10-cm Petri dish; FIG. 3(A)
Hsp104p = target: T1, Hsp104p (Saccharomyces cerevisiae, UniProt P31539); conditions: 3-5 mM; cited from earlier work
T1 construct: cellular Hsp104p is required for two similar types of protein aggregation in yeast cells; host or cells: yeast cells (endogenous Hsp104p)

97Q-ADE2 [2] = test: colony-color assay of yeast cells expressing 97Q-ADE2 on adenine low medium; type: cell-based
97Q-ADE2 [3] = test: filter trap assay on cellulose acetate membrane for 97Q-ADE2 aggregates; type: cell-based, yeast
Procedure: Therefore, this unique physical characteristic of the aggregates could be detected biochemically using a filter trap assay in which only proteins with size more than 0.2 micrometers retain on a cellulose acetate membrane (Scherzinger et al., 1997, Cell 90, 549-558). In order to validate the colony-color phenotypes observed in the genetic experiments were caused by the formation of ADE2 protein aggregates, cell lysates were prepared and subjected to filter trap assays.
The experimental procedures for slot-blot assay were following: Nitrocellulose (NC) membrane was pre-wetted with TBS (20 mM Tris, 500 mM NaCl), then assembled into Bio-Dot apparatus (BIO-RAD) in which 3 filter papers (BIO-RAD) were on the bottom as a support and NC membrane was on the top. After assembly of the Bio-Dot apparatus, 200 μl TBS buffer was added into each loading well to rinse the membrane followed by the addition of diluted cell lysate (3 μl prepared cell lysate mixed with 197 μl TBS buffer). When the lysate has completely drained from the apparatus by gravity, 200 μl TBS buffer was loaded again to reduce residual proteins within the loading well. Following the step of TBS wash, 200 μl TTBS (20 mM Tris, 500 mM NaCl, and 0.05% Tween 20) was applied as washing buffer and the solution was sucked out by vacuum pump. The membrane was subjected to TTBS wash twice followed by removal of the membrane from the Bio-Dot apparatus and detection of trapped proteins by Western blotting. […] The signal for the immuno-blotting was detected by enhanced chemiluminescence (ECL) reagents. […]
In order to confirm the change of phenotype observed was caused by the alteration of protein solubility, the combination of filter trap and slot blot assays was applied for detecting the level of polyglutamine protein aggregates within these cells. […] Thus, the reduction of polyglutamine protein aggregation caused by Hsp104p inhibitor was tightly associated with the change of cellular phenotype and could be visibly detected by the colony color system.

[4] = system: cells that did not express 97Q-ADE2; test: colony-color control on glucose media, cells that did not express 97Q-ADE2, 48-well microplate; type: cell-based, yeast; conditions: 0, 1, 3 and 5 mM, FIG. 4 first row
Procedure: Plate preparation for colony-color assay was as following: 6.7 g of yeast nitrogen base lacking amino acids, 20 g of Bacto agar and 1.3 g of drop-out mix that contain amino acids supplement necessary for viable and selective growth of the transformed cells were added to 900 ml of H2O according to Burke et al. (Burke et al., Methods in Yeast Genetics, 2000 Edition, Gold Spring Harbor Laboratory Press, 171-175). Carbon source, either glucose or galactose, and filter-sterilized adenine were added after autoclaving to final concentrations of 2% and 4 mg/l, respectively. For preparation of media containing guanidine hydrochloride, the chemical reagent was added simultaneously with carbon source and adenine to final concentrations of […] as indicated. There were about 20 ml of medium in each 10 cm petri dish and 0.2 ml of medium in each well of 48-well microplate.
For the purpose of drug screening, small volume of medium for examining the colony color phenotype of cells has advantage in saving the amount of candidate compound tested. […] With glucose or galactose as carbon source, the transformed cells were grown on adenine low media containing guanidine hydrochloride at a final concentration of 0, 1, 3 and 5 mM as indicated. […]

T1 sequence (P31539 whole entry): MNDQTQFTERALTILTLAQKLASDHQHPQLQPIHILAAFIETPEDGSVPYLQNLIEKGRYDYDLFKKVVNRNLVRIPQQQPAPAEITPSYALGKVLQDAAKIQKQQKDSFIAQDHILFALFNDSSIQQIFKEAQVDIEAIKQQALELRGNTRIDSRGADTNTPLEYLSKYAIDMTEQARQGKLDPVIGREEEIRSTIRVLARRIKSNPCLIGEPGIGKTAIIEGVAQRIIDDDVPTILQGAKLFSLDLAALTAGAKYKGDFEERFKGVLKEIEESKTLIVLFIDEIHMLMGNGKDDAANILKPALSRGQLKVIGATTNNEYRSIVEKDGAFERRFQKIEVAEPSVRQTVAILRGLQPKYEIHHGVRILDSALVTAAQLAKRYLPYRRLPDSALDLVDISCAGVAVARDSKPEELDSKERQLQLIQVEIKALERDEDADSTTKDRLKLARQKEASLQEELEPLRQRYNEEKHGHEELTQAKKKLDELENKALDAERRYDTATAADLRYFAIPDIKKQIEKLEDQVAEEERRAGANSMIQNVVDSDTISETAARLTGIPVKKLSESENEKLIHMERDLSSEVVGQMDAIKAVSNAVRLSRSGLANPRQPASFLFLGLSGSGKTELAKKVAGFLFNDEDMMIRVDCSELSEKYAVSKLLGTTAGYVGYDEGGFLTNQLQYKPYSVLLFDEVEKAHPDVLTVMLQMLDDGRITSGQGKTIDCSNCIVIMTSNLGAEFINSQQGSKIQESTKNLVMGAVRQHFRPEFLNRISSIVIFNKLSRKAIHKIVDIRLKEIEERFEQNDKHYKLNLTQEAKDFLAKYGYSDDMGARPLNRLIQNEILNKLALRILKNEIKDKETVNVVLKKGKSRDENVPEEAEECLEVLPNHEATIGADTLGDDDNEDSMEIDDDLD

| SMILES | neurodegeneration in an animal model (neurodegeneration) | polyglutamine protein aggregation [1] | colony color of cells expressing 25Q-ADE2 (25Q-ADE2) | activity of Hsp104p (Hsp104p) | cellular color of 97Q-ADE2 expressing cells (97Q-ADE2 [2]; 0, 1, 3 and 5 mM, 48-well microplate, galactose, FIG. 4 second row) | appearance of colony color, 97Q-ADE2 versus 25Q-ADE2 cells (97Q-ADE2 [2]; 5 mM, 10-cm Petri dish) | cellular color phenotype of cells expressing 97Q-ADE2 (97Q-ADE2 [2]; guanidine hydrochloride 0, 1, 3 and 5 mM, adenine low media, 10-cm Petri dish, FIG. 3(A)) | 97Q-ADE2 fusion protein trapped on cellulose acetate membrane (97Q-ADE2 [3]; 1 mM, FIG. 3(B) lane 3) | 97Q-ADE2 fusion protein trapped on cellulose acetate membrane (97Q-ADE2 [3]; 3 mM, continuous treatment, FIG. 3(B) lane 4) | 97Q-ADE2 fusion protein trapped on cellulose acetate membrane (97Q-ADE2 [3]; 5 mM, continuous treatment, FIG. 3(B) lane 5) | colony color of cells that did not express 97Q-ADE2 [4] |
| --- | --- | --- | --- | --- | --- | --- | --- | --- | --- | --- | --- |
| C[C@@H](N)[C@H]1CC[C@H](C(=O)Nc2ccncc2)CC1 [Y-27632] | reduced neurodegeneration | diminished polyglutamine protein aggregation | – | – | – | – | – | – | – | – | – |
| N=C(N)N [guanidine hydrochloride] | – | – | constantly showed colony color of white | substantially reduces the activity of Hsp104p | changed their cellular colors from red to white | indistinguishable between cells expressing 25Q-ADE2 and 97Q-ADE2 | changed from red to pink and white as a function of guanidine hydrochloride concentration | significant amount of the fusion protein was trapped | little | no signal | the cellular phenotype remained the same |
